From patent US8273880B2, “Pyrazole compounds with inhibitory activity against ROS kinase” (Korea Institute of Science and Technology, priority 2009, dated 2012)
Entries after “also recorded” stand apart in the source; their conditions may differ.

Columns and labels:
Format in all cases: biochemical
P38a/MAPK14 = molecular target: T1, P38a/MAPK14 (Homo sapiens, UniProt Q16539); experiment: HotSpot kinase screening over 45 different kinases, single dose 10 μM; settings: single dose concentration of 10 μM, 10 μM ATP, compared to enzyme activity in DMSO control
T1 construct: purchased Reaction Biology Corporation
Method: (§1) Kinase screening was performed using a “HotSpot” assay platform commercially available from Reaction Biology Corporation. For this kinase screening, reaction buffers were based on 20 mM Hepes (pH 7.5), 10 mM MgCl2, 1 mM EGTA, 0.02% Brij35, 0.02 mg/mL BSA, 0.1 mM Na3VO4, 2 mM DTT, and 1% DMSO, with supplementary factors necessary for respective kinase reactions added thereto. In each enzyme reaction, […] of each kinase was used together with a fresh reaction buffer and appropriate supplementary factors. A solution of each compound in DMSO was added in a suitable concentration to the reaction buffer. Kinase reaction started with the introduction of […] (specific activity […]) and continued for 2 hours at room temperature.
(§2) 1) Screening of Compounds Over 45 Different Kinases
(§3) Each compound was tested twice at a single dose concentration of 10 μM. […] The reaction was performed with 10 μM ATP.

CHK1 = molecular target: T2, CHK1 (Homo sapiens, UniProt O14757); experiment: as above; settings: single dose concentration of 10 μM, 10 μM ATP
T2 construct: purchased Reaction Biology Corporation
Method: as §1, §2, §3

TIE2/TEK = molecular target: T3, TIE2/TEK (Homo sapiens, UniProt Q02763); experiment: as above; settings: single dose concentration of 10 μM, 10 μM ATP
T3 construct: purchased Reaction Biology Corporation
Method: as §1, §2, §3

Aurora A = molecular target: T4, Aurora A (Homo sapiens, UniProt O14965); experiment: as above; settings: single dose concentration of 10 μM, 10 μM ATP
T4 construct: purchased Reaction Biology Corporation
Method: as §1, §2, §3

PKCa = molecular target: T5, PKCa (Homo sapiens, UniProt P17252); experiment: as above; settings: single dose concentration of 10 μM, 10 μM ATP
T5 construct: purchased Reaction Biology Corporation
Method: as §1, §2, §3

p70S6K = molecular target: T6, p70S6K (Homo sapiens, UniProt P23443); experiment: as above; settings: single dose concentration of 10 μM, 10 μM ATP
T6 construct: purchased Reaction Biology Corporation
Method: as §1, §2, §3

JAK1 = molecular target: T7, JAK1 (Homo sapiens, UniProt P23458); experiment: as above; settings: single dose concentration of 10 μM, 10 μM ATP
T7 construct: purchased Reaction Biology Corporation
Method: as §1, §2, §3

FYN = molecular target: T8, FYN (Homo sapiens, UniProt P06241); experiment: as above; settings: single dose concentration of 10 μM, 10 μM ATP
T8 construct: purchased Reaction Biology Corporation
Method: as §1, §2, §3

AKT1 (dPH, S473D) = molecular target: T9, AKT1 (dPH, S473D) (Homo sapiens, UniProt P31749, S473D); experiment: as above; settings: single dose concentration of 10 μM, 10 μM ATP
T9 construct: AKT1 (dPH, S473D); purchased Reaction Biology Corporation
Method: as §1, §2, §3

MUSK = molecular target: T10, MUSK (Homo sapiens, UniProt O15146); experiment: as above; settings: single dose concentration of 10 μM, 10 μM ATP
T10 construct: purchased Reaction Biology Corporation
Method: as §1, §2, §3

YES = molecular target: T11, YES (Homo sapiens, UniProt P07947); experiment: as above; settings: single dose concentration of 10 μM, 10 μM ATP
T11 construct: purchased Reaction Biology Corporation
Method: as §1, §2, §3

PLK1 = molecular target: T12, PLK1 (Homo sapiens, UniProt P53350); experiment: as above; settings: single dose concentration of 10 μM, 10 μM ATP
T12 construct: purchased Reaction Biology Corporation
Method: as §1, §2, §3

IR = molecular target: T13, IR (Homo sapiens, UniProt P06213); experiment: as above; settings: single dose concentration of 10 μM, 10 μM ATP
T13 construct: purchased Reaction Biology Corporation
Method: as §1, §2, §3

RocK1 = molecular target: T14, RocK1 (Homo sapiens, UniProt Q13464); experiment: as above; settings: single dose concentration of 10 μM, 10 μM ATP
T14 construct: purchased Reaction Biology Corporation
Method: as §1, §2, §3

FGR = molecular target: T15, FGR (Homo sapiens, UniProt P09769); experiment: as above; settings: single dose concentration of 10 μM, 10 μM ATP
T15 construct: purchased Reaction Biology Corporation
Method: as §1, §2, §3

LCK = molecular target: T16, LCK (Homo sapiens, UniProt P06239); experiment: as above; settings: single dose concentration of 10 μM, 10 μM ATP
T16 construct: purchased Reaction Biology Corporation
Method: as §1, §2, §3

EPHA1 = molecular target: T17, EPHA1 (Homo sapiens, UniProt P21709); experiment: as above; settings: single dose concentration of 10 μM, 10 μM ATP
T17 construct: purchased Reaction Biology Corporation
Method: as §1, §2, §3

CK1epsilon = molecular target: T18, CK1epsilon (Homo sapiens, UniProt P49674); experiment: as above; settings: single dose concentration of 10 μM, 10 μM ATP
T18 construct: purchased Reaction Biology Corporation
Method: as §1, §2, §3

c-MET = molecular target: T19, c-MET (Homo sapiens, UniProt P08581); experiment: as above; settings: single dose concentration of 10 μM, 10 μM ATP
T19 construct: purchased Reaction Biology Corporation
Method: as §1, §2, §3

CDK1/cyclinB = molecular target: T20, CDK1/cyclinB (Homo sapiens, UniProt P06493); experiment: as above; settings: single dose concentration of 10 μM, 10 μM ATP
T20 construct: purchased Reaction Biology Corporation
Method: as §1, §2, §3

PAK4 = molecular target: T21, PAK4 (Homo sapiens, UniProt O96013); experiment: as above; settings: single dose concentration of 10 μM, 10 μM ATP
T21 construct: purchased Reaction Biology Corporation
Method: as §1, §2, §3

PIM1 = molecular target: T22, PIM1 (Homo sapiens, UniProt P11309); experiment: as above; settings: single dose concentration of 10 μM, 10 μM ATP
T22 construct: purchased Reaction Biology Corporation
Method: as §1, §2, §3

RON/MST1R = molecular target: T23, RON/MST1R (Homo sapiens, UniProt Q04912); experiment: as above; settings: single dose concentration of 10 μM, 10 μM ATP
T23 construct: purchased Reaction Biology Corporation
Method: as §1, §2, §3

45 different kinases = experiment: Kinase selectivity from screening over 45 different kinases
Method: as §1, §2, §3

[1] = compared to enzyme activity in DMSO control

T8 sequence (P06241 whole entry): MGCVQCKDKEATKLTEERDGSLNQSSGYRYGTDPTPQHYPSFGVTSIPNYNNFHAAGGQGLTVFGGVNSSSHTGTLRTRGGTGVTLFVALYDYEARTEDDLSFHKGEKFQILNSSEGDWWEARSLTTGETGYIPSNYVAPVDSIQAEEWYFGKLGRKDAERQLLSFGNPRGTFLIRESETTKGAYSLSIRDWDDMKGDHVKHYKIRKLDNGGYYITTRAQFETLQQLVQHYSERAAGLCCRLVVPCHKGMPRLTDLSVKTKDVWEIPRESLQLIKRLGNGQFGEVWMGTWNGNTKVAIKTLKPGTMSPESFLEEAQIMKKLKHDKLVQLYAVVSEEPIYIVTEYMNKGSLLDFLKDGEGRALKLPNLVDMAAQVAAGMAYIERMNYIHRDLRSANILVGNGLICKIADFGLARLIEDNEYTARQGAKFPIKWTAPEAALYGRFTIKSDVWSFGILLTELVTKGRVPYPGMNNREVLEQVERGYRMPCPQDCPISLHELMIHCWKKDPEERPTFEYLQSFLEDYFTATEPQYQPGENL
T15 sequence (P09769 whole entry): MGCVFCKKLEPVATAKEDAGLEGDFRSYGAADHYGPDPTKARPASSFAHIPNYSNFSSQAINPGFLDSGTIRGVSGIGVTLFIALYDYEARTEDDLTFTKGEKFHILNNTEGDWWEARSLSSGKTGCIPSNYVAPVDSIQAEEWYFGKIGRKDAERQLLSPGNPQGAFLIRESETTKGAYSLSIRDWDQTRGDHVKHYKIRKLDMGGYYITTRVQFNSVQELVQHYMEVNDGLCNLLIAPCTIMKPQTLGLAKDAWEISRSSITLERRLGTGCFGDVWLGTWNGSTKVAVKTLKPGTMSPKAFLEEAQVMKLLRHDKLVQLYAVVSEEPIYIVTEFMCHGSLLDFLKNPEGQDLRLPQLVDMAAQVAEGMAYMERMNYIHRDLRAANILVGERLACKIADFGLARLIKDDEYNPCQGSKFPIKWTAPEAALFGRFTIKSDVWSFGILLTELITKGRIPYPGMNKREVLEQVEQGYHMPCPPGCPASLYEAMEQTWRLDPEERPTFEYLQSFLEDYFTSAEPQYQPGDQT
T18 sequence (P49674 whole entry): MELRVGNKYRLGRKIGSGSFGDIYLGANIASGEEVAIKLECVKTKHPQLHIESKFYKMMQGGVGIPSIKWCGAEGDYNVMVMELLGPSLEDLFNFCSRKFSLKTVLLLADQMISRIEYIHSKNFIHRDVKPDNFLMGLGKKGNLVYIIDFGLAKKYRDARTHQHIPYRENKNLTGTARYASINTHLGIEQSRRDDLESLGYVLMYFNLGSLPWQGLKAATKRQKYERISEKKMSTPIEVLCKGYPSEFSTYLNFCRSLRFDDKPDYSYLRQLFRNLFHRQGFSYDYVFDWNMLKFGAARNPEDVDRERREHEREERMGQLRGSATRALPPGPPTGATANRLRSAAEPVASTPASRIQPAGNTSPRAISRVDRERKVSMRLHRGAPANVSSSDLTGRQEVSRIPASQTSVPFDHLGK
T14 sequence (Q13464 whole entry): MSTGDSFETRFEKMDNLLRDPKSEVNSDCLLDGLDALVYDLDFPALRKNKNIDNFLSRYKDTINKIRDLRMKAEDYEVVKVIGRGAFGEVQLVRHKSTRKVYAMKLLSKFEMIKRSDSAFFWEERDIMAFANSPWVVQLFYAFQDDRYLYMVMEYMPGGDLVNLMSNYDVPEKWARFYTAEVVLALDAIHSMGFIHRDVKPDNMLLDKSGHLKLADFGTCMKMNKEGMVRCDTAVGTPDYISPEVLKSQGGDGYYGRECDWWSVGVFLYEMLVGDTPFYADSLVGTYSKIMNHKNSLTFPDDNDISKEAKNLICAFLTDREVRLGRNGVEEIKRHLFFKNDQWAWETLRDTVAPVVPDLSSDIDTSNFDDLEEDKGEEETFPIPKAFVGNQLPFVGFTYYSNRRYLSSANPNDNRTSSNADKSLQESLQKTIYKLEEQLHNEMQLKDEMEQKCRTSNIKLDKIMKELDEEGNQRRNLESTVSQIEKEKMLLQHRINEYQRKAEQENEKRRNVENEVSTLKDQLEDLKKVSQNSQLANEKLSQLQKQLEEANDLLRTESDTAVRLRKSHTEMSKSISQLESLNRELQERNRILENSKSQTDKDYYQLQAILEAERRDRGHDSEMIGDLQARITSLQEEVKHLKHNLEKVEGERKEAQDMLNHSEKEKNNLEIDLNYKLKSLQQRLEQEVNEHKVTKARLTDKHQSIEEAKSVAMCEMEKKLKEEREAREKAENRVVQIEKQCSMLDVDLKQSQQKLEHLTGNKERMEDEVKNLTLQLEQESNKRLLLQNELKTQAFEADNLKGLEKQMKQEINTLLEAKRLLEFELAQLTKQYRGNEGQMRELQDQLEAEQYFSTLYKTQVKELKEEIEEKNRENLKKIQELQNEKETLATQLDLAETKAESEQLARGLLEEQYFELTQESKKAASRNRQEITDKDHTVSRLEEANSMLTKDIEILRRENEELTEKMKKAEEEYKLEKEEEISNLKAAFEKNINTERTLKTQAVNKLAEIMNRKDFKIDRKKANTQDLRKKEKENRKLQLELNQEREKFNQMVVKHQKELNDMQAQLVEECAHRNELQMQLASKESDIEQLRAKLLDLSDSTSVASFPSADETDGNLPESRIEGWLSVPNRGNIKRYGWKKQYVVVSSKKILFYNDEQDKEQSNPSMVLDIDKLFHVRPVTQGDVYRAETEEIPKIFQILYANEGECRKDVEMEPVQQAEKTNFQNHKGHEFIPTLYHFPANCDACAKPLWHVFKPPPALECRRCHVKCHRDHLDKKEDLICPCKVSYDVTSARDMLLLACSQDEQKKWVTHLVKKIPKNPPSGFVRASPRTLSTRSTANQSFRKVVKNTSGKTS
T3 sequence (Q02763 23-1124): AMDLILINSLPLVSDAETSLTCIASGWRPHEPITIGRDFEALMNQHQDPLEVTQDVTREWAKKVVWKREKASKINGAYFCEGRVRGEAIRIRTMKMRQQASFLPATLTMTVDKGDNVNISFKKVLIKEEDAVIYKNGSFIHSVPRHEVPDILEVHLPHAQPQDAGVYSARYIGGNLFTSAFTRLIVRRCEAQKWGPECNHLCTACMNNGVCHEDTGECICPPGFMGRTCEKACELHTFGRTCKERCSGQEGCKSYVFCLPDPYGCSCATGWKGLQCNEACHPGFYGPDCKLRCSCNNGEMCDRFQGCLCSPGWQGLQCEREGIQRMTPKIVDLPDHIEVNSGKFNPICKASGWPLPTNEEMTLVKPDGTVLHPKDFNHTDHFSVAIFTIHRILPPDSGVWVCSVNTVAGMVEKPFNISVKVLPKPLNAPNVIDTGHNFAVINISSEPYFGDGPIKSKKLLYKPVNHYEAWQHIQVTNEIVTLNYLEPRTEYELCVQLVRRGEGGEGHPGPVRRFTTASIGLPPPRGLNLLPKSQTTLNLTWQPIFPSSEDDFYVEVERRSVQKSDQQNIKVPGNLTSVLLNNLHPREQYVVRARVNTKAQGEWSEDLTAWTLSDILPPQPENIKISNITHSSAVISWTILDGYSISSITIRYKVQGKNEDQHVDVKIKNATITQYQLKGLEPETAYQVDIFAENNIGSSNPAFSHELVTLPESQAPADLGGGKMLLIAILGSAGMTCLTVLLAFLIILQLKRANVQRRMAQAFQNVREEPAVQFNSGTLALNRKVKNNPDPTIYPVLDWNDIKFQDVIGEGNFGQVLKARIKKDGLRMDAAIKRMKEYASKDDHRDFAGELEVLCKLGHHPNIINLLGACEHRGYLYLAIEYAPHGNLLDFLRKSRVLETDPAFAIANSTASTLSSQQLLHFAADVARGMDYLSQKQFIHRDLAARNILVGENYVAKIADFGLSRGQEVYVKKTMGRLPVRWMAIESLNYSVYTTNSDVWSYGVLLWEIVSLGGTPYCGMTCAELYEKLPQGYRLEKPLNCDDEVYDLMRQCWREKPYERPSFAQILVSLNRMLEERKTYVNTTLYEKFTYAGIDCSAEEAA
T12 sequence (P53350 whole entry): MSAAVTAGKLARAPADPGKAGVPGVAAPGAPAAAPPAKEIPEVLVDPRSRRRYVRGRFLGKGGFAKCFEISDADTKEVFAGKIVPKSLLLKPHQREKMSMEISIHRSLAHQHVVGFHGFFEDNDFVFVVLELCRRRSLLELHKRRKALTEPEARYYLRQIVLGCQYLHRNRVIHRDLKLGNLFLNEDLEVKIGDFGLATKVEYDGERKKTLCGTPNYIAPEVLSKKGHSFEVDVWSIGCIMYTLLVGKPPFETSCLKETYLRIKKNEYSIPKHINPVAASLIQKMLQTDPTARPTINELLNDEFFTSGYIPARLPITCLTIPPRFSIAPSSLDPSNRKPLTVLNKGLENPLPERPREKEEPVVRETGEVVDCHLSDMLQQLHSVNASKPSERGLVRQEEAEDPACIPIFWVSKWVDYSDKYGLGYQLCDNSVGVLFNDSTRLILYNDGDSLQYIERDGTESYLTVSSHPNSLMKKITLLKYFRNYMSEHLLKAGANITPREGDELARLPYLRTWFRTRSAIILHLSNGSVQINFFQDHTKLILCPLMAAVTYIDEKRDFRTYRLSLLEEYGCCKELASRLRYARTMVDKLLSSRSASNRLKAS
T9 sequence (P31749 118-480 S473D limits assumed): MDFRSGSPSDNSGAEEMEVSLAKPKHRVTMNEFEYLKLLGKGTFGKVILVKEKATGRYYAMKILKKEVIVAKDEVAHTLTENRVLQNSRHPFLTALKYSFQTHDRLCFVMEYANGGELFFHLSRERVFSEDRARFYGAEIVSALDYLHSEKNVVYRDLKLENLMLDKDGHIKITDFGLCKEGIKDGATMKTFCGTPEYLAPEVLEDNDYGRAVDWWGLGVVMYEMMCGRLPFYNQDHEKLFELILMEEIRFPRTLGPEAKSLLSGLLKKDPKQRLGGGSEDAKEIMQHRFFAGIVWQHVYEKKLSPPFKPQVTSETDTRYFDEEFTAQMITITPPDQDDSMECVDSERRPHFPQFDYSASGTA

activity at 10 µM (P38a/MAPK14): 94.7%
inhibition at 10 µM (CHK1): 2.36%
activity at 10 µM (CHK1; [1]): 97.6%
inhibition at 10 µM (TIE2/TEK): 8.17%
activity at 10 µM (TIE2/TEK; [1]): 91.8%
inhibition at 10 µM (Aurora A): 21.8%
activity at 10 µM (Aurora A; [1]): 78.2%
inhibition at 10 µM (PKCa): 9.23%
activity at 10 µM (PKCa; [1]): 90.8%
inhibition at 10 µM (p70S6K): 5.79%
activity at 10 µM (p70S6K; [1]): 94.2%
inhibition at 10 µM (JAK1): 9.15%
activity at 10 µM (JAK1; [1]): 90.8%
inhibition at 10 µM (FYN): -7.86%
activity at 10 µM (FYN; [1]): 108%
inhibition at 10 µM (AKT1 (dPH, S473D)): -2.97%
activity at 10 µM (AKT1 (dPH, S473D); [1]): 103%
inhibition at 10 µM (MUSK): -0.42%
activity at 10 µM (MUSK; [1]): 100%
inhibition at 10 µM (YES): -2.59%
activity at 10 µM (YES; [1]): 103%
inhibition at 10 µM (PLK1): 5.85%
activity at 10 µM (PLK1; [1]): 94.2%
inhibition at 10 µM (IR): 7.01%
activity at 10 µM (IR; [1]): 93%
inhibition at 10 µM (RocK1): 11.7%
activity at 10 µM (RocK1; [1]): 88.3%
inhibition at 10 µM (FGR): 3.34%
activity at 10 µM (FGR; [1]): 96.7%
inhibition at 10 µM (LCK): 10.3%
activity at 10 µM (LCK; [1]): 89.7%
inhibition at 10 µM (EPHA1): 23.3%
activity at 10 µM (EPHA1; [1]): 76.7%
inhibition at 10 µM (CK1epsilon): 9.32%
activity at 10 µM (CK1epsilon; [1]): 90.7%
inhibition at 10 µM (c-MET): 5.82%
activity at 10 µM (c-MET; [1]): 94.2%
inhibition at 10 µM (CDK1/cyclinB): 3.64%
activity at 10 µM (CDK1/cyclinB; [1]): 96.4%
inhibition at 10 µM (PAK4): 1.37%
activity at 10 µM (PAK4; [1]): 98.6%
inhibition at 10 µM (PIM1): 5.91%
activity at 10 µM (PIM1; [1]): 94.1%
inhibition at 10 µM (RON/MST1R): 28.8%
activity at 10 µM (RON/MST1R; [1]): 71.1%
SMILES: Cc1cc(O)cc(-c2nn(CC#N)cc2-c2cc(NC[C@H](C)O)nc(-c3cccnc3)n2)c1 [Example 10, [4-[6-(2(S)-hydroxypropylamino)-2-pyridin-3-yl-pyrimidin-4-yl]-3-(3-hydroxy-5-methylphenyl)-pyrazol-1-yl]acetonitrile]
Notes (selectivity for ROS) (45 different kinases): no inhibitory activity against almost all of the tested kinases, except for ROS kinase; also recorded: Selective for ROS
